One assay deals with T1, PPAR-delta (UniProt Q03181).
T1 sequence (Q03181 1-441): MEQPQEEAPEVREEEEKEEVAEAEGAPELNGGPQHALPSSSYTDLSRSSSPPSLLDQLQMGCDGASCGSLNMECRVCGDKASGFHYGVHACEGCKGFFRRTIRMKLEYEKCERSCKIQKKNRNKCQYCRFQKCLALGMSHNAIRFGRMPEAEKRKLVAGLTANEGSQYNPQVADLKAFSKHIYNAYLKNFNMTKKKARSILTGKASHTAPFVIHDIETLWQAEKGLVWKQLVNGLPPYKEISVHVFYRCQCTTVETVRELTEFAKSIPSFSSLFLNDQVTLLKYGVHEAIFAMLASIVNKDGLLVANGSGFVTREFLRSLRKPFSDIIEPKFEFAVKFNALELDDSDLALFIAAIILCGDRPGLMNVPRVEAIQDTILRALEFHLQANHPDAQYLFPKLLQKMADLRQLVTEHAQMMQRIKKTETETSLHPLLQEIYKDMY
Briefly: PPAR-delta transactivation assay (GAL4 chimera, luciferase reporter) in CV-1 cells. In kind it is cell-based, murine and human. To be noted: GAL4-PPAR LBD chimera. The essentials: (§1)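 CV-1 cells transiently transfected with murine or human PPAR-alpha, -gamma or -delta ligand-binding domain fused to GAL4 DNA-binding domain plus a GAL4-site luciferase reporter. After replating in phenol-red-free DME with 5% delipidated calf serum, cells were exposed to compound 20-24 h; luciferase read-out gave EC50.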
For orientation: A reporter such as luciferase makes a cellular process visible.

The target of another assay is T2, PPAR-alpha (UniProt Q07869).
T2 sequence (Q07869 1-468): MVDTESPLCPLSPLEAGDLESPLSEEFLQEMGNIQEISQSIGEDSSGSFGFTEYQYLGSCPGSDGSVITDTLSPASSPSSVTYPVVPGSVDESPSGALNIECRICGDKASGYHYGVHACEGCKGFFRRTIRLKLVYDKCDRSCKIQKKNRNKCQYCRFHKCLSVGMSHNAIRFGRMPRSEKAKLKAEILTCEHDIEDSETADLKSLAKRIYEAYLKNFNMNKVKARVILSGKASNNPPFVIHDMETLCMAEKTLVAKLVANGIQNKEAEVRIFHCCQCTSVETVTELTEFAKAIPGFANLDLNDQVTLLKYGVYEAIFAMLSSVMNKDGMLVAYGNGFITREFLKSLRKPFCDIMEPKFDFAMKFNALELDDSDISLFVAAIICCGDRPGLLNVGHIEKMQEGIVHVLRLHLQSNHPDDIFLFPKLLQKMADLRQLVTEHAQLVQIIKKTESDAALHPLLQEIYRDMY
The experiment in a line: PPAR-alpha transactivation assay (GAL4 chimera, luciferase reporter) in CV-1 cells. In kind it is cell-based, murine and human. The following applies: GAL4-PPAR LBD chimera. The procedure, abridged:
as §1

In another assay the target is T3, PPAR-gamma (UniProt P37231).
T3 sequence (P37231 1-505): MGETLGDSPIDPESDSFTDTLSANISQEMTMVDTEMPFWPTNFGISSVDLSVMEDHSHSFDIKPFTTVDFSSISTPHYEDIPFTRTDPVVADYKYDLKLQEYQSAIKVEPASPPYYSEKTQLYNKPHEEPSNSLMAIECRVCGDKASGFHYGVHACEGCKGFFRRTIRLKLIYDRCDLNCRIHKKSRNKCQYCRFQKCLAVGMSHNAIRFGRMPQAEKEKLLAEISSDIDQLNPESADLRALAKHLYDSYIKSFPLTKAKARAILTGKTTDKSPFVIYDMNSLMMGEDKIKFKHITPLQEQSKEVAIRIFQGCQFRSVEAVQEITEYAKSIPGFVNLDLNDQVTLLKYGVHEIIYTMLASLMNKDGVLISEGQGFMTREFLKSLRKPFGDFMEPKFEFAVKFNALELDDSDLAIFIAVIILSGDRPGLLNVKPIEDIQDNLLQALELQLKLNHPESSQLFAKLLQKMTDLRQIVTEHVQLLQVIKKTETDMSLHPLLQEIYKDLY
Briefly: PPAR-gamma transactivation assay (GAL4 chimera, luciferase reporter) in CV-1 cells. In kind it is cell-based, murine and human. To be noted: GAL4-PPAR LBD chimera. The essentials:
as §1

The test system of assay [1] is Diet-Induced Obesity (DIO) in Mice. The experiment in a line: Model of Diet-Induced Obesity (DIO) in mice, dose ranging study. To be noted: HFD, 1.5 mg/kg BID. In kind it is in vivo, C57B1/6j mice. The source says: Evaluation of Pharmacological Efficacy of a Compound of the Invention in a Model of Diet-Induced Obesity (DIO) in Mice
Metabolic syndrome in humans is characterized by abdominal obesity, high triglycerides, impaired fasting glucose and hyperinsulinemia. In the DIO model, mice are fed high fat diet (HFD, Research diet D12492, Research Diet, NJ) diet (58% lard) for the entire period of the study. Compared to normal chow (NC, Harlan-Tekland #8604, WI) fed animals the HF fed mice develop several features of metabolic syndrome such as, hypertriglyceridemia, hyperinsulinemia and mild hyperglycemia, as early as two weeks, on this diet. […] This model was used to evaluate the pharmacological effects of a compound of the invention selected from the group consisting of Examples 1-141 (referred to for the purposes of this study as “Compound (I)”) in mitigating several features of HFD induced metabolic syndrome in rodents.
C57B1/6j mice (n=5) were fed ad libitum with either the HFD (58% fat) or NC (5%) diet for 3 weeks prior to start of experiment, and throughout the course of the experiment (45 days). Starting on Day 1, mice were dosed BID with either Compound (I)+vehicle, vehicle alone, or GW501516, a known PPARδ modulator in clinical development by Glaxo-Wellcome, for the entire period of the study. Animals were the assessed for body weight gain, food intake, triglyceride (TG), insulin, and glucose levels under fasting and postprandial (PP) conditions. Animals were weighed twice weekly in the morning to determine body weight gain. Plasma or serum was separated from whole blood (Sarstedt) and TG levels were assayed with a TG kit (Thermo Electron Corporation, TX). Plasma insulin levels were assayed using the ultrasensitive mouse Insulin ELISA immunoassay (American Laboratory Products Company). Total cholesterol, HDLc and LDLc was measured to evaluate pharmacological efficacy at various time points during the study and serum transaminases were measured to evaluate any potential toxicity of the compound. These measurements were performed with a chemistry analyzer at Labcorp of America, NC.

A value given as a limit tells only on which side of the number the result lay.

For `Cc1cc(N2C[C@@H](C)N(S(=O)(=O)c3cccc4c3CC(C(=O)O)C4)[C@@H](C)C2)ccc1Cl` (stereo partly drawn) [Example 135, 4-|4-(4-Chloro-3-methylphenyl)-cis-2,6-dimethylpiperazin-1-ylsulfonyl|-2,3-dihydro-1H-indene-2-carboxylic acid], the results for the EC50 on PPAR-delta, on PPAR-alpha and on PPAR-gamma were < 5 µM, > 100 µM and > 100 µM, respectively.

With `CCc1ccc(N2C[C@@H](C)N(S(=O)(=O)c3cccc4c3CC(C(=O)O)C4)[C@@H](C)C2)cc1` (stereo partly drawn) [Example 136, 4-|4-(4-Ethylphenyl)-cis-2,6-dimethylpiperazin-1-ylsulfonyl|-2,3-dihydro-1H-indene-2-carboxylic acid], the results for the concentration giving a half-maximal response (EC50) at PPAR-delta, at PPAR-alpha and at PPAR-gamma were < 5 µM, > 100 µM and > 100 µM, respectively.

In the case of `Cc1ccc(N2C[C@@H](C)N(S(=O)(=O)c3cccc4c3CC(C(=O)O)C4)[C@@H](C)C2)cc1C` (stereo partly drawn) [Example 137, 4-|4-(3,4-Dimethylphenyl)-cis-2,6-dimethylpiperazin-1-ylsulfonyl|-2,3-dihydro-1H-indene-2-carboxylic acid], the concentration giving a half-maximal response (EC50) at PPAR-delta is < 5 µM; at PPAR-alpha it was > 100 µM; on PPAR-gamma, > 100 µM.

For `Cc1cc(SCc2sc(-c3ccc(C(F)(F)F)cc3)nc2C)ccc1OCC(=O)O` [GW516], in assay [1], the “% change in body weight (d0 vs d40)” value was found to be 10.6%, the Insulin worked out at 1.3 ± 0.3 ng/mL and the TG was 268 ± 56 mg/dL.

Broadly, the EC50 is the concentration giving half of the maximal effect. A low value points to greater potency.
